In US12084522B2, “Peptides, combination of peptides, and cell based medicaments for use in immunotherapy against urinary bladder cancer and other cancers” (Immatics Biotechnologies GmbH, priority 2016, dated 2024):

Legend:
[1] = system: CD8+ T cells from healthy HLA-A*02 donors; test: In vitro immunogenicity: priming of CD8+ T cells with aAPCs loaded with peptide/MHC complexes and anti-CD28, pMHC multimer readout; type: cell-based, human; settings: HLA-A*02 restricted peptides, positive wells among evaluable, Table 10B
Text: In order to obtain information regarding the immunogenicity of the TUMAPs of the present invention, the inventors performed investigations using an in vitro T-cell priming assay based on repeated stimulations of CD8+ T cells with artificial antigen presenting cells (aAPCs) loaded with peptide/MHC complexes and anti-CD28 antibody.
In order to perform in vitro stimulations by artificial antigen presenting cells loaded with peptide-MHC complex (pMHC) and anti-CD28 antibody, the inventors first isolated CD8+ T cells from fresh HLA-A*02 leukapheresis products via positive selection using CD8 microbeads (Miltenyi Biotec, Bergisch-Gladbach, Germany) of healthy donors obtained from the University clinics Mannheim, Germany, after informed consent.
PBMCs and isolated CD8+ lymphocytes were incubated in T-cell medium (TCM) until use consisting of RPMI-Glutamax (Invitrogen, Karlsruhe, Germany) supplemented with 10% heat inactivated human AB serum (PAN-Biotech, Aidenbach, Germany), 100 U/ml Penicillin/100 μg/ml Streptomycin (Cambrex, Cologne, Germany), 1 mM sodium pyruvate (CC Pro, Oberdorla, Germany), 20 μg/ml Gentamycin (Cambrex). 2.5 ng/ml IL-7 (PromoCell, Heidelberg, Germany) and 10 U/ml IL-2 (Novartis Pharma, Nürnberg, Germany) were also added to the TCM at this step.
Generation of pMHC/anti-CD28 coated beads, T-cell stimulations and readout was performed in a highly defined in vitro system using four different pMHC molecules per stimulation condition and 8 different pMHC molecules per readout condition.
The purified co-stimulatory mouse IgG2a anti human CD28 Ab 9.3 (Jung et al., 1987) was chemically biotinylated using Sulfo-N-hydroxysuccinimidobiotin as recommended by the manufacturer (Perbio, Bonn, Germany). Beads used were 5.6 μm diameter streptavidin coated polystyrene particles (Bangs Laboratories, Illinois, USA).
800.000 beads/200 μl were coated in 96-well plates in the presence of 4×12.5 ng different biotin-pMHC, washed and 600 ng biotin anti-CD28 were added subsequently in a volume of 200 μl. Stimulations were initiated in 96-well plates by co-incubating 1×10^6 CD8+ T cells with 2×10^5 washed coated beads in 200 μl TCM supplemented with 5 ng/ml IL-12 (PromoCell) for 3 days at 37° C. Half of the medium was then exchanged by fresh TCM supplemented with 80 U/ml IL-2 and incubating was continued for 4 days at 37° C. This stimulation cycle was performed for a total of three times. For the pMHC multimer readout using 8 different pMHC molecules per condition, a two-dimensional combinatorial coding approach was used as previously described (Andersen et al., 2012) with minor modifications encompassing coupling to 5 different fluorochromes. Finally, multimeric analyses were performed by staining the cells with Live/dead near IR dye (Invitrogen, Karlsruhe, Germany), CD8-FITC antibody clone SK1 (BD, Heidelberg, Germany) and fluorescent pMHC multimers. For analysis, a BD LSRII SORP cytometer equipped with appropriate lasers and filters was used. Peptide specific cells were calculated as percentage of total CD8+ cells. Evaluation of multimeric analysis was done using the FlowJo software (Tree Star, Oregon, USA). In vitro priming of specific multimer+CD8+ lymphocytes was detected by comparing to negative control stimulations.

[2] = biological target: HLA-A*02:01 (Homo sapiens, UniProt P04439, D140Y/D185E/D98H/E176V/E277Q/G131W/G231S/I119V/I121R/I166T/I218V/L300P/L318F/N151K/N90K/P208A/P217A/Q86G/Q94H/R138H/R169H/T345S); test: MHC binding assay (UV-ligand exchange, β2m ELISA, peptide exchange yield); settings: binding to HLA-A*02:01 ranged by peptide exchange yield (UV-ligand exchange, β2m ELISA)

| Peptide exchange [2] | Substance | Wells positive [%] [1] |
| --- | --- | --- |
| +++ (>50 = +++) | 15 (YLAPENGYLMEA; listed as Homo sapiens) [compound 15] | + (<20% = +) |
| +++ (>50 = +++) | 75 (RVISSVISV; listed as Homo sapiens) [compound 75] | ++ (20%-49% = ++) |

Continued, substance first:

| Substance | Peptide exchange [2] | Wells positive [%] [1] |
| --- | --- | --- |
| 10 (GLWHGMFANV; listed as Homo sapiens) [compound 10] | ++++ (>75% = ++++) | ++ (20%-49% = ++) |
| 60 (SLSDVRVIV; listed as Homo sapiens) [compound 60] | ++++ (>75% = ++++) | + (<20% = +) |
| 29 (ALSSPPPTV; listed as Homo sapiens) [compound 29] | +++ (>50 = +++) | + (<20% = +) |
| 9 (SLVDARFQL; listed as Homo sapiens) [compound 9] | ++++ (>75% = ++++) | + (<20% = +) |
